Columns and labels:
[1] = system: cuboids from a human colorectal tumor biopsy; experiment: CytC in supernatant of drug-treated human tumor cuboids, aptasensor platform; type: cell-based; settings: three days treatment; Staurosporine 1 μM, FOLFOX 1 μg/mL 5FU+1 μg/mL Oxaliplatin, FOLFIRI 5FU+Irinotecan
Protocol: (§1) Measurement of CytC from the supernatant of human microdissected cancer tissue cultured with drugs using the aptasensor platform. A study was conducted to assess the aptasensor platform's ability to quantify CytC secretion from human cuboids after drug treatments for three days in culture with Staurosporine, FOLFOX (a combination of fluorouracil and oxaliplatin), and FOLFIRI (a combination of fluorouracil and irinotecan), in comparison to the dimethyl sulfoxide (DMSO) vehicle control. Uniform-sized cuboids were prepared from a human colorectal tumor biopsy. Each drug condition was prepared in duplicate. Subsequently, the supernatants were collected and the level of CytC released from the cuboids after cell death was measured using the aptasensor platform. To validate the platform's measurements, the results were compared with those obtained from ELISA (FIG. 4D). […] In some cases, the platform even indicated higher production rates. Duplicates for both the sensor and for the ELISA were consistent. […] While the trend in measurements for supernatant 1 and supernatant 2 was similar between sensor reading and ELISA, the higher concentration observed in sensor readings may stem from variations in the sensor-specific calibration curves.
(§2) Human colorectal cancer tumor supernatant. Colorectal tumor biopsy was obtained from a person with metastatic cancer who had been off treatment for a year. […]

[2] = system: cuboids from a human colorectal tumor biopsy; experiment: CytC in supernatant of drug-treated human tumor cuboids, ELISA; type: cell-based; settings: three days treatment; duplicated supernatant samples; same drug concentrations
Protocol: as §1, §2

## CN[C@@H]1C[C@H]2O[C@@](C)([C@@H]1OC)n1c3ccccc3c3c4c(c5c6ccccc6n2c5c31)C(=O)NC4 [Staurosporine]
[1]
  CytC production relative to DMSO control vehicle (aptasensor platform): ~3 fold
[2]
  CytC production relative to DMSO control vehicle (ELISA): 4.23 fold

From patent US20240369511A1, “INTEGRATED ELECTROCHEMICAL APTASENSORS FOR MEASURING CELL DEATH AND CYTOKINE ACTIVITY FROM INTACT TISSUE SAMPLES” (University of Washington, priority 2023, published 2024)
